Literature values, collected in patent US11571438B1, “Nutraceutical compositions to up-regulate SIRT1 and methods of use” (priority 2022, dated 2023).

How the values were obtained:
mTOR = details: individual administration
AMPK = details: individual administration

O=c1c(O)c(-c2ccc(O)c(O)c2)oc2cc(O)cc(O)c12 [quercetin]
mTOR inhibition (mTOR): statistically significant increase
AMPK activation (AMPK): statistically significant increase

COc1cc(/C=C/C(=O)O)ccc1O [ferulic acid]
mTOR inhibition (mTOR): statistically significant increase
AMPK activation (AMPK): statistically significant increase

COc1ccc2cc3[n+](cc2c1OC)CCc1cc2c(cc1-3)OCO2 [berberine]
mTOR inhibition (mTOR): statistically significant increase
AMPK activation (AMPK): statistically significant increase

OCCc1ccc(O)cc1 [tyrosol]
mTOR inhibition (mTOR): statistically significant increase
AMPK activation (AMPK): statistically significant increase
